These results are taken from ChEMBL document CHEMBL1127977, “Benzolactam growth hormone secretagogues: Carboxamides as replacements for the 2-tetrazole moiety of L-692,429” (1994).

Molecules are shown by their SMILES.

For this assay, the species on record is Rattus norvegicus. As to the kind of experiment: Tested in vitro for growth hormone release in rat pituitary cells. It is filed as functional. The note with it: Pituitary gland cell, read-out: ED50 (the source's name).
In the case of `CC(C)(N)CC(=O)N[C@@H]1CCc2ccccc2N(Cc2ccc(-c3ccccc3C(=O)NCCCCCO)cc2)C1=O`, the EC50 was determined as 10 nM. Next, `CCN(CC)C(=O)c1ccccc1-c1ccc(CN2C(=O)[C@H](NC(=O)CC(C)(C)N)CCc3ccccc32)cc1`: 2000 nM; `CC(C)(N)CC(=O)N[C@@H]1CCc2ccccc2N(Cc2ccc(-c3ccccc3C(=O)NCc3ccc(O)cc3)cc2)C1=O`: 300 nM; `CC(C)(N)CC(=O)N[C@@H]1CCc2ccccc2N(Cc2ccc(-c3ccccc3C(=O)NCCCCO)cc2)C1=O`: 10 nM. Under `COc1ccc(CNC(=O)c2ccccc2-c2ccc(CN3C(=O)[C@H](NC(=O)CC(C)(C)N)CCc4ccccc43)cc2)cc1` stands 2000 nM; under `CC(C)(N)CC(=O)N[C@@H]1CCc2ccccc2N(Cc2ccc(-c3ccccc3C(=O)NCCO)cc2)C1=O`, 3000 nM; under `CC(C)(N)CC(=O)N[C@@H]1CCc2ccccc2N(Cc2ccc(-c3ccccc3-c3nn[nH]n3)cc2)C1=O`, 60 nM.

Regarding `CC(C)(N)CC(=O)N[C@@H]1CCc2ccccc2N(Cc2ccc(-c3ccccc3C(=O)NCc3ccccc3)cc2)C1=O`, the EC50 amounted to 900 nM. Under `CCNC(=O)c1ccccc1-c1ccc(CN2C(=O)[C@H](NC(=O)CC(C)(C)N)CCc3ccccc32)cc1` stands 90 nM; under `CCCCCNC(=O)c1ccccc1-c1ccc(CN2C(=O)[C@H](NC(=O)CC(C)(C)N)CCc3ccccc32)cc1`, > 1000 nM; under `CC(C)(N)CC(=O)N[C@@H]1CCc2ccccc2N(Cc2ccc(-c3ccccc3C(N)=O)cc2)C1=O`, 80 nM.

In the case of `CC(C)(CC(=O)N[C@@H]1CCc2ccccc2N(Cc2ccc(-c3ccccc3C(N)=O)cc2)C1=O)NC[C@H](O)CO`, the EC50 was 3 nM. Under `CC(C)(N)CC(=O)N[C@@H]1CCc2ccccc2N(Cc2ccc(-c3ccccc3C(=O)NCCCO)cc2)C1=O` stands 400 nM; under `CC(C)(CC(=O)N[C@@H]1CCc2ccccc2N(Cc2ccc(-c3ccccc3-c3nn[nH]n3)cc2)C1=O)NC[C@H](O)CO`, 10 nM; under `C[C@@H](O)CNC(C)(C)CC(=O)N[C@@H]1CCc2ccccc2N(Cc2ccc(-c3ccccc3C(N)=O)cc2)C1=O`, 4 nM. Next, `C[C@@H](O)CNC(C)(C)CC(=O)N[C@@H]1CCc2ccccc2N(Cc2ccc(-c3ccccc3-c3nn[nH]n3)cc2)C1=O` [L-692585]: 3 nM.
